# Results from patent US20260008818A1, “CYCLIC PEPTIDE OR SALT THEREOF, AND USES THEREOF” (FUJIFILM Corporation, priority 2023, published 2026).
# Numbered stars: 1 amine (or outer) side, 2 acyl side, 3 side chain; on linkers, the order of the positions; unused ones are H or OH. Bridge positions count the residues as written; N and C are the ends. Square brackets hold non-standard residues; d marks the D form. Ends that are not written are not given here. I, II: the chains in the order shown. ξ: configuration not given here. ξY = NC(Cc1ccc(O)cc1)C(=O)O; ξR = N=C(N)NCCCC(N)C(=O)O; Dap = NC[C@H](N)C(=O)O; X1 = O=C(C[*:1])[*:2]; ξK = NCCCCC(N)C(=O)O; ξP = O=C(O)C1CCCN1; ξC = NC(CS)C(=O)O
# Key:
# [1] = system: bovine myoblasts; assay: Bovine cell (myoblast) proliferation-promoting effect; assay type: cell-based, Japanese Black cattle; conditions: 0.03 to 10 nmol/L, 4 days; viable cells normalized to 30 ng/mL bFGF = 100, negative control = 0
# Procedure: The bovine cells (myoblasts) proliferation-promoting effect of the cyclic peptide complex was evaluated.
# Bovine myoblasts were separated from bovine muscle tissue by the following method. First, muscle tissue of Japanese Black cattle was finely chopped in HBSS (−) (phenol red-free) (FUJIFILM Wako Pure Chemical Corporation, 085-09355), and then pronase from Streptomyces griseus (Sigma-Aldrich, 10165921001) was added thereto to a final concentration of 1 mg/mL, and the mixture was allowed to stand at 37° C. for 1 hour. After allowing to stand, HBSS containing 10% FBS was added thereto, and the cells were acquired by centrifugation. The acquired cells were suspended in D-MEM (high glucose) (containing L-glutamine and phenol red) (FUJIFILM Wako Pure Chemical Corporation, 044-29765) containing 10% final concentration of bovine serum and 30 ng/mL bFGF. Suspended cells were cultured in a culture flask coated with an iMatrix-511 solution (FUJIFILM Wako Pure Chemical Corporation, 381-07363) at 0.55 μg/cm^2. […]
# The evaluation of the proliferation-promoting effect on bovine myoblasts was performed by the following method. […] The number of viable cells was calculated from the imaging data and normalized by setting the number of viable cells in the well to which 30 ng/mL bFGF was added to 100, and setting the number of viable cells in the negative control well to 0.
# [2] = system: hMSC-Human Mesenchymal Stem Cells; assay: Effect of maintaining MSC undifferentiated potency (gene expression); assay type: cell-based; conditions: cyclic peptide complex 3 nmol/L or bFGF 1 nmol/L, normalized to 1 nmol/L bFGF = 1, bFGF compared with negative control
# Procedure: The effect of maintaining mesenchymal stem cell (MSC) undifferentiated potency of the cyclic peptide complex was evaluated.
# MSC was prepared in the same manner as in Example 7.
# The evaluation of the effect of maintaining the MSC undifferentiated potency was performed by the following method. First, a culture medium (hereinafter, referred to as a custom culture medium) in which bFGF was removed from PRIME-XV MSC Expansion XSFM (FUJIFILM Irvine Scientific, Inc., 91149) was prepared. Next, Prime-XV Human Fibronectin (FUJIFILM Irvine Scientific, Inc., 31002) was dissolved in PBS (Fujifilm Wako Pure Chemical Corporation, 164-23551), 2 μg/cm^2 of the solution was added to a 12-well plate used for proliferation, and the 12-well plate was allowed to stand at room temperature for 3 hours to coat the 12-well plate with fibronectin. Thereafter, the MSCs subjected to the subculture were peeled using Tryple Express (Thermo, 12604-013), washed once with a custom culture medium, suspended in a custom culture medium in which a cyclic peptide complex or bFGF (R&D Systems, 3718-GMP) was diluted to final concentrations of 3 nmol/L and 1 nmol/L, and seeded on a 12-well plate coated with fibronectin. In this case, conditions in which the cyclic peptide complex and bFGF were not added as a negative control were prepared. After culturing at 37° C. (5% CO2) for 2 nights, the culture medium was replaced by removing the supernatant of the culture medium and adding the same amount of a culture medium prepared to have the same composition as the removed culture medium. After further culturing at 37° C. (5% CO2) for 2 nights, RNA was extracted using an RNeasy Plus Mini Kit (Qiagen, 74136) according to the manufacturer's protocol. […] The expression level of each gene was normalized by setting the expression level of the well to which 1 nmol/L bFGF was added to 1.
# [3] = system: hMSC-Human Mesenchymal Stem Cells; assay: Mesenchymal stem cell (MSC) proliferation-promoting effect; assay type: cell-based; conditions: 0.001 to 3 nmol/L, bFGF-free custom culture medium; viable cells normalized to 1 nmol/L bFGF = 100, negative control = 0
# Procedure: The mesenchymal stem cell (MSC) proliferation-promoting effect of the cyclic peptide complex was evaluated.
# The MSC was activated and subcultured according to the recommended protocol of FUJIFILM Irvine Scientific, Inc. using hMSC-Human Mesenchymal Stem Cells (Lonza, PT-2501) and PRIME-XV MSC Expansion XSFM (FUJIFILM Irvine Scientific, Inc., 91149) as a culture medium. MSCs that had been subcultured 1 to 4 times were used for the evaluation.
# The evaluation of the proliferation-promoting effect of MSC was performed by the following method. First, a culture medium (hereinafter, referred to as a custom culture medium) in which bFGF was removed from PRIME-XV MSC Expansion XSFM (FUJIFILM Irvine Scientific, Inc., 91149) was prepared. Next, Prime-XV Human Fibronectin (FUJIFILM Irvine Scientific, Inc., 31002) was dissolved in PBS (Fujifilm Wako Pure Chemical Corporation, 164-23551), 2 μg/cm^2 of the solution was added to a 96-well plate used for evaluation, and the 96-well plate was allowed to stand at room temperature for 3 hours to coat the 96-well plate with fibronectin. […] The number of viable cells was calculated from the imaging data and normalized by setting the number of viable cells in the well to which 1 nmol/L bFGF was added to 100, and setting the number of viable cells in the negative control well to 0.
substance,measurement,setting,value
"I: H[ξC]SYERLEFHGHEAPFRV[ξK]V[Dap]-NH2 / II: HCS[ξY]E[ξR]LQFHGHEA[ξP]FRVK[dV] (linker I:2-I:19, II:2-II:19 via X1; amide I:21-II:C) [SEQ ID NO: 393, (H-(C)-SYERLQFHGHEAPFRV-(K(acetyl))-V)2-Dap]",bovine myoblast proliferation action,[1],about 80%
same,expression level of Sox2,[2],the same degree of a gene expression level as bFGF
same,MSC proliferation action,[3],the same degree of MSC proliferation action as bFGF
